Data taken from ChEMBL document CHEMBL4673260, “Pyridine alkaloids with activity in the central nervous system” (Bioorg Med Chem, 2020).

Key:
[1] = molecular target: Sodium-dependent dopamine transporter (Homo sapiens) (UniProt Q01959); experiment: Inhibition of human dopamine transporter expressed in CHO-K1 cells at 10 uM relative to control; type: cell-based
[2] = molecular target: T1, Neuronal acetylcholine receptor; alpha4/beta2 (Rattus norvegicus, UniProt P09483+P12390)
Description: Agonist activity at alpha4beta2 nAChR in rat frontal cortex membrane

[3] = Half life in human; type: ADME
Homo sapiens [4] = species on record: Homo sapiens; experiment: Inhibition of Glutamate receptor ionotropic NMDA agonist site (unknown origin) at 10 uM relative to control
[5] = molecular target: 5-hydroxytryptamine receptor 3A (Homo sapiens) (UniProt P46098); experiment: Inhibition of 5HT-3 (unknown origin) receptor at 10 uM relative to control
Sequence of 5-hydroxytryptamine receptor 3A (Homo sapiens) (P46098 whole entry): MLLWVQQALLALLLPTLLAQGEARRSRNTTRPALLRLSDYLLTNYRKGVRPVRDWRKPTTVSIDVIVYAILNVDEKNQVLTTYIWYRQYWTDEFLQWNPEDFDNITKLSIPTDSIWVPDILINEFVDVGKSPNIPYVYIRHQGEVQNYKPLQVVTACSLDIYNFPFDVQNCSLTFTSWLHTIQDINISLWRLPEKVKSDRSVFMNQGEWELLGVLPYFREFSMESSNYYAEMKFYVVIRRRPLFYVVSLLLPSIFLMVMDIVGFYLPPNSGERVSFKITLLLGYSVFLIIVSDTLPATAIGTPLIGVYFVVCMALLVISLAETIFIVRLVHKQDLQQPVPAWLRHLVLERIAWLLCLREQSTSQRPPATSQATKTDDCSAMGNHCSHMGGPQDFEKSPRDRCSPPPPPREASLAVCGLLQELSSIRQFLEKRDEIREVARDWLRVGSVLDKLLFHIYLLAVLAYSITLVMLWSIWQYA

[6] = molecular target: Histamine H2 receptor (Homo sapiens) (UniProt P25021); experiment: Inhibition of human histamine H2 receptor expressed in CHO-K1 cells at 10 uM relative to control; type: cell-based
Sequence of Histamine H2 receptor (Homo sapiens) (P25021 whole entry): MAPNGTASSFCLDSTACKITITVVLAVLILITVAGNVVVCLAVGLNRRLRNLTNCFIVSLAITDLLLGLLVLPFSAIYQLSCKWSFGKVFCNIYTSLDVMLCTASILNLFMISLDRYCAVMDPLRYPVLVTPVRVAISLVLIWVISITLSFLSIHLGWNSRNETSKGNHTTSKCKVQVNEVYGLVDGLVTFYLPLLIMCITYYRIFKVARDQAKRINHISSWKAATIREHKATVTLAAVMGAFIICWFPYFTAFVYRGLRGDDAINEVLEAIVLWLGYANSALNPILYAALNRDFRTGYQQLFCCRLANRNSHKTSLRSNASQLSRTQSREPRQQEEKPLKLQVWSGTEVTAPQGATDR

Acetylcholinesterase = Acetylcholinesterase (Homo sapiens, UniProt P22303); experiment: Inhibition of acetylcholinesterase (unknown origin) at 10 uM relative to control
Homo sapiens [7] = species on record: Homo sapiens; experiment: Inhibition of N-type calcium channel (unknown origin) at 10 uM relative to control
[8] = molecular target: 5-hydroxytryptamine receptor 1D (Homo sapiens) (UniProt P28221); experiment: Inhibition of 5HT-1D receptor (unknown origin) at 10 uM relative to control
Histamine H3 receptor = Histamine H3 receptor (Homo sapiens, UniProt Q9Y5N1); experiment: Inhibition of human histamine H3 receptor expressed in CHO-K1 cells at 10 uM relative to control; type: cell-based
L-type calcium channel = L-type calcium channel (Homo sapiens, UniProt O60840+Q01668+Q13698+Q13936); experiment: Inhibition of L-type calcium channel (unknown origin) at 10 uM relative to control; type: protein assay
Homo sapiens [9] = species on record: Homo sapiens; experiment: Inhibition of human adenosine transporter at 10 uM relative to control
Homo sapiens [10] = species on record: Homo sapiens; experiment: Inhibition of nAChR (unknown origin) at 10 uM relative to control
[11] = molecular target: Mu-type opioid receptor (Homo sapiens) (UniProt P35372); experiment: Inhibition of human Mu-type opioid receptor at 10 uM relative to control
Sequence of Mu-type opioid receptor (Homo sapiens) (P35372 whole entry): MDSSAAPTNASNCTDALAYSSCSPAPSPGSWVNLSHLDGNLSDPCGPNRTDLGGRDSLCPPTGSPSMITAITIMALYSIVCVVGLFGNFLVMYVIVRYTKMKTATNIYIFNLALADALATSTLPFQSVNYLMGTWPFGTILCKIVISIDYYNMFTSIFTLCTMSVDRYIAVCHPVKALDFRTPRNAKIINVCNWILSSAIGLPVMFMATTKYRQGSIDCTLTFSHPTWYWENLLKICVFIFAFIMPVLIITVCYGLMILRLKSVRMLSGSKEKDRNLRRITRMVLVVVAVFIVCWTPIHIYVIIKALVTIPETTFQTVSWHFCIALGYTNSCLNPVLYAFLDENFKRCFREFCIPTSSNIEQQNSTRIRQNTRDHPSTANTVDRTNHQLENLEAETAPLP

[12] = molecular target: 5-hydroxytryptamine receptor 1A (Homo sapiens) (UniProt P08908); experiment: Inhibition of human 5HT-1a receptor at 10 uM relative to control
Sequence of 5-hydroxytryptamine receptor 1A (Homo sapiens) (P08908 whole entry): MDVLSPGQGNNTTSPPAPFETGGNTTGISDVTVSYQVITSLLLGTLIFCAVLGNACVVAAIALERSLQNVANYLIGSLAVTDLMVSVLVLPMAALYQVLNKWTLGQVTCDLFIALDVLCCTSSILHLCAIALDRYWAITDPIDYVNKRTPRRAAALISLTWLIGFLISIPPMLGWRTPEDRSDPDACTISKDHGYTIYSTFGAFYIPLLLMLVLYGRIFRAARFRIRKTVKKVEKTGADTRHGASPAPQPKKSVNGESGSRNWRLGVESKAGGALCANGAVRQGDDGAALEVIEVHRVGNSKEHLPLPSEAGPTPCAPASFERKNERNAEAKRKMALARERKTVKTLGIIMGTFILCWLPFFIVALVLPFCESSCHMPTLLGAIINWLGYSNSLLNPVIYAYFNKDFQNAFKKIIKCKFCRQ

Homo sapiens [13] = species on record: Homo sapiens; experiment: Inhibition of Glutamate receptor ionotropic AMPA site (unknown origin) at 10 uM relative to control
[14] = molecular target: Alpha-1A adrenergic receptor (Homo sapiens) (UniProt P35348); experiment: Inhibition of human adrenergic receptor alpha1A expressed in CHO-K1 cells at 10 uM relative to control; type: cell-based
Sequence of Alpha-1A adrenergic receptor (Homo sapiens) (P35348 whole entry): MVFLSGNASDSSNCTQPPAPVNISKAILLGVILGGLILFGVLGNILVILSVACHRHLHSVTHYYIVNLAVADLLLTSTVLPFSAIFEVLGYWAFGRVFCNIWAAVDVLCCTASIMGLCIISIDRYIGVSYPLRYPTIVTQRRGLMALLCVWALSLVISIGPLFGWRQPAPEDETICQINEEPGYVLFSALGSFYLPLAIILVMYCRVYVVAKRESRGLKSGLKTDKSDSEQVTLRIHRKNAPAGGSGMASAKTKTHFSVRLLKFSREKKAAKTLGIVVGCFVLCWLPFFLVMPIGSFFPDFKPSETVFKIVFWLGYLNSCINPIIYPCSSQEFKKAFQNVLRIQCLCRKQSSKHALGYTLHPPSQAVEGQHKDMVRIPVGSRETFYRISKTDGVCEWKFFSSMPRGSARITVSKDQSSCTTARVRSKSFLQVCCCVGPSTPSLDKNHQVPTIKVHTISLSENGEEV

[15] = molecular target: Adenosine receptor A2a (Homo sapiens) (UniProt P29274); experiment: Inhibition of human adenosine receptor A2A expressed in HEK293 cells at 10 uM relative to control; type: cell-based
[16] = molecular target: 5-hydroxytryptamine receptor 7 (Homo sapiens) (UniProt P34969); experiment: Inhibition of human 5HT-7 receptor at 10 uM relative to control
Sequence of 5-hydroxytryptamine receptor 7 (Homo sapiens) (P34969 whole entry): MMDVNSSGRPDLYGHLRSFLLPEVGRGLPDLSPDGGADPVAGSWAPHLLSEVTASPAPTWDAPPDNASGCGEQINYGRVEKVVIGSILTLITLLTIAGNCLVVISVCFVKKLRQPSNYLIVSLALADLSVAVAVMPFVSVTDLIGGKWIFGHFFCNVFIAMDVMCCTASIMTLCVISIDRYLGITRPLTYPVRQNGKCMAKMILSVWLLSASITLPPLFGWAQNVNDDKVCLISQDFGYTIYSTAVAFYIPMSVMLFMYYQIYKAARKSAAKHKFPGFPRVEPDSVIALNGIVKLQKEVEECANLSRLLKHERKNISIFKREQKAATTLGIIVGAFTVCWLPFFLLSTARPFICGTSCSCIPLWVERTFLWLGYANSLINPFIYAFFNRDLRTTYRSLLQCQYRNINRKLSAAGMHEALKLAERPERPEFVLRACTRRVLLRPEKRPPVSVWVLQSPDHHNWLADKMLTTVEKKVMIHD

Homo sapiens [17] = species on record: Homo sapiens; experiment: Inhibition of GABA-A agonist site (unknown origin) at 10 uM relative to control
[18] = molecular target: Alpha-2C adrenergic receptor (Homo sapiens) (UniProt P18825); experiment: Inhibition of human adrenergic receptor alpha2C expressed in CHO-K1 cells at 10 uM relative to control; type: cell-based
[19] = molecular target: D(4) dopamine receptor (Homo sapiens) (UniProt P21917); experiment: Inhibition of human dopamine D4.4 receptor expressed in CHO-K1 cells at 10 uM relative to control; type: cell-based
[20] = molecular target: Endothelin-1 receptor (Homo sapiens) (UniProt P25101); experiment: Inhibition of human ET-A at 10 uM relative to control
Sequence of Endothelin-1 receptor (Homo sapiens) (P25101 whole entry): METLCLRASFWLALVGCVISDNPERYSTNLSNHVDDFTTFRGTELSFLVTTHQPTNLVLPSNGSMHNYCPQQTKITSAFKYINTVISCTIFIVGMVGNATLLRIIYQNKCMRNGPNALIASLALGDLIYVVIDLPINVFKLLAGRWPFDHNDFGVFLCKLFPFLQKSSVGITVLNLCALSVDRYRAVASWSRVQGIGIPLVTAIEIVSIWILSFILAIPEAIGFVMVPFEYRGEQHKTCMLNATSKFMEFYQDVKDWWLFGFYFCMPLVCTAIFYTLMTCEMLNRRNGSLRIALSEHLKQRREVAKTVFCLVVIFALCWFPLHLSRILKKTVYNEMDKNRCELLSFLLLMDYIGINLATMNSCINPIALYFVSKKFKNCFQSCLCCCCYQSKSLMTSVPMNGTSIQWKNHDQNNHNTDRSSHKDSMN

[21] = molecular target: 5-hydroxytryptamine receptor 2A (Homo sapiens, UniProt P28223); experiment: Inhibition of human 5HT-2A receptor at 10 uM relative to control
[22] = molecular target: Thromboxane A2 receptor (Homo sapiens) (UniProt P21731); experiment: Inhibition of human Thromboxane A2 at 10 uM relative to control
[23] = molecular target: Adenosine receptor A1 (Homo sapiens) (UniProt P30542); experiment: Inhibition of human adenosine receptor A1 expressed in CHO-K1 cells at 10 uM relative to control; type: cell-based
Sequence of Adenosine receptor A1 (Homo sapiens) (P30542 whole entry): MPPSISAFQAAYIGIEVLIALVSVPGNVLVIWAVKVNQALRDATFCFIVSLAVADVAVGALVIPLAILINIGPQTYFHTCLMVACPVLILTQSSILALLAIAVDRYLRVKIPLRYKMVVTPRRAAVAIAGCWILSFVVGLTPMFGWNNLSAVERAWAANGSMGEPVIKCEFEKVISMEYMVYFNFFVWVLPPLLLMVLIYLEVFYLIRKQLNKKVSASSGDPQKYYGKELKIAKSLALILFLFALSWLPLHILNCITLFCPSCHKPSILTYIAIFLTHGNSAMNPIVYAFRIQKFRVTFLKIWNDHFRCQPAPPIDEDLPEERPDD

[24] = molecular target: D(2) dopamine receptor (Homo sapiens) (UniProt P14416); experiment: Inhibition of human dopamine D2S receptor expressed in CHO-K1 cells at 10 uM relative to control; type: cell-based
[25] = molecular target: Muscarinic acetylcholine receptor M5 (Homo sapiens) (UniProt P08912); experiment: Inhibition of human muscarinic M5 receptor expressed in CHO-K1 cells at 10 uM relative to control; type: cell-based
[26] = molecular target: 5-hydroxytryptamine receptor 4 (Homo sapiens) (UniProt Q13639); experiment: Inhibition of 5HT-4 (unknown origin) receptor at 10 uM relative to control
[27] = molecular target: Muscarinic acetylcholine receptor M2 (Homo sapiens) (UniProt P08172); experiment: Inhibition of human muscarinic M2 receptor expressed in CHO-K1 cells at 10 uM relative to control; type: cell-based
[28] = molecular target: Sodium-dependent serotonin transporter (Homo sapiens) (UniProt P31645); experiment: Inhibition of human serotonin transporter expressed in HEK293 cells at 10 uM relative to control; type: cell-based
Homo sapiens [29] = species on record: Homo sapiens; experiment: Inhibition of Glutamate receptor ionotropic kainate site (unknown origin) at 10 uM relative to control
[30] = molecular target: Alpha-2A adrenergic receptor (Homo sapiens) (UniProt P08913); experiment: Inhibition of human adrenergic receptor alpha2A expressed in CHO-K1 cells at 10 uM relative to control; type: cell-based
[31] = molecular target: Muscarinic acetylcholine receptor M1 (Homo sapiens) (UniProt P11229); experiment: Inhibition of human muscarinic M1 receptor expressed in CHO-K1 cells at 10 uM relative to control; type: cell-based
[32] = molecular target: Sigma non-opioid intracellular receptor 1 (Homo sapiens) (UniProt Q99720); experiment: Inhibition of sigma 1 receptor (unknown origin) at 10 uM relative to control
Sequence of Sigma non-opioid intracellular receptor 1 (Homo sapiens) (Q99720 whole entry): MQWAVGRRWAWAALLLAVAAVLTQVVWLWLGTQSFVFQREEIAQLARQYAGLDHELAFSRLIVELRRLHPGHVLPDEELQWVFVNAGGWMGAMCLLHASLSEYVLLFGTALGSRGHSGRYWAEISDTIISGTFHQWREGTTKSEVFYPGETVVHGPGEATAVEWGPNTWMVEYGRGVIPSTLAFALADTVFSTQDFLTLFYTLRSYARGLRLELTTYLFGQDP

Homo sapiens [33] = species on record: Homo sapiens; experiment: Inhibition of NOS (unknown origin) at 10 uM relative to control
[34] = molecular target: Protein kinase C alpha type (Homo sapiens) (UniProt P17252); experiment: Inhibition of human protein kinase Ca at 10 uM relative to control
Homo sapiens [35] = species on record: Homo sapiens; experiment: Inhibition of Calcium-activated potassium channel channel (unknown origin); conditions: concentration not given here
[36] = molecular target: cGMP-specific 3',5'-cyclic phosphodiesterase (Homo sapiens) (UniProt O76074); experiment: Inhibition of human PDE5A1 at 10 uM relative to control
[37] = molecular target: T1, Neuronal acetylcholine receptor; alpha4/beta2; experiment: Displacement of [3H]epibatidine from alpha4beta2 nAChR in rat frontal cortex membrane by scintillation counting method; type: cell membranes
[38] = molecular target: Muscarinic acetylcholine receptor M3 (Homo sapiens, UniProt P20309); experiment: Inhibition of human muscarinic M3 receptor expressed in CHO-K1 cells at 10 uM relative to control; type: cell-based
[39] = Induction of contextual fear extinction in fear-conditioned C57/BlJ6 mouse assessed as decrease in initial freezing behavior at 5 mg/kg administered for 1 week by contextual fear conditioning assay; type: functional; design: scale not given: the % may be the effect or the level left; conditions: time 1 weeks

T1 sequence (P09483 whole entry): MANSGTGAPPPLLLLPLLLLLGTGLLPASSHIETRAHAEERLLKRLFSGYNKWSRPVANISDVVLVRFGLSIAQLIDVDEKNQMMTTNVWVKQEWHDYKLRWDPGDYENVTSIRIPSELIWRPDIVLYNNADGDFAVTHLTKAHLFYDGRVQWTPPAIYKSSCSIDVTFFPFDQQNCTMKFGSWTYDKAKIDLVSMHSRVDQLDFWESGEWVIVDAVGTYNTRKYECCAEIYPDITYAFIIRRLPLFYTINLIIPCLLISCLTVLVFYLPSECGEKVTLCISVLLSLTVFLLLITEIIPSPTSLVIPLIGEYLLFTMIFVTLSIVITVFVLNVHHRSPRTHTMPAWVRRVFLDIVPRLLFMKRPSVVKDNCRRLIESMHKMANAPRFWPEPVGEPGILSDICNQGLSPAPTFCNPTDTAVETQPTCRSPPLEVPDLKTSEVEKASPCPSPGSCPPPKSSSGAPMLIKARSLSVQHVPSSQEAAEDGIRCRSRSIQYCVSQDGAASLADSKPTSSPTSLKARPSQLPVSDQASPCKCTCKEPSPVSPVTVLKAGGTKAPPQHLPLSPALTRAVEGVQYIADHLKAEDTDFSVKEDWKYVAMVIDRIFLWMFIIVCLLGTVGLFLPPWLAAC
T1 sequence (P12390 whole entry): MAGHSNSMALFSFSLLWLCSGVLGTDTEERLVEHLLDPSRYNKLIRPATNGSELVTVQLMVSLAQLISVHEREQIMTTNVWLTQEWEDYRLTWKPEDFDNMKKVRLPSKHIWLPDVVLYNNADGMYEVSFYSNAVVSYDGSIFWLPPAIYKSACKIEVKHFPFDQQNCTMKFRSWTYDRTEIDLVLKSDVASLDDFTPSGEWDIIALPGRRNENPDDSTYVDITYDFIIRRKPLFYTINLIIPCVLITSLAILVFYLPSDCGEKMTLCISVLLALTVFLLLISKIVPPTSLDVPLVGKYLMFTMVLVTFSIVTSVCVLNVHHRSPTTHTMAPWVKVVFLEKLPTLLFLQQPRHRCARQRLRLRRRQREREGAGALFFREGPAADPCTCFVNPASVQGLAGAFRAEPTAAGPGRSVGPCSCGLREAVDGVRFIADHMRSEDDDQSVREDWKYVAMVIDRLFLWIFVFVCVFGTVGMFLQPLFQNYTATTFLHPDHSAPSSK

CN1C(=O)CC[C@H]1c1cccnc1 [COTININE]
inhibition [1]: < 50% | EC50 [2]: 21 µM | half-life [3]: 19 h | inhibition (Homo sapiens [4]): < 50% | inhibition [5]: < 50% | inhibition [6]: < 50% | inhibition (Acetylcholinesterase): < 50% | inhibition (Homo sapiens [7]): < 50% | inhibition [8]: < 50% | inhibition (Histamine H3 receptor): < 50% | inhibition at 10 µM (L-type calcium channel): < 50% | inhibition (Homo sapiens [9]): < 50% | inhibition (Homo sapiens [10]): < 50% | inhibition [11]: < 50% | inhibition [12]: < 50% | inhibition (Homo sapiens [13]): < 50% | inhibition [14]: < 50% | inhibition [15]: < 50% | inhibition [16]: < 50% | inhibition (Homo sapiens [17]): < 50% | inhibition [18]: < 50% | inhibition [19]: < 50% | inhibition [20]: < 50% | inhibition [21]: < 50% | inhibition [22]: < 50% | inhibition [23]: < 50% | inhibition [24]: < 50% | inhibition [25]: < 50% | inhibition [26]: < 50% | inhibition [27]: < 50% | inhibition [28]: < 50% | inhibition (Homo sapiens [29]): < 50% | inhibition [30]: < 50% | inhibition [31]: < 50% | inhibition [32]: < 50% | inhibition (Homo sapiens [33]): < 50% | inhibition [34]: < 50% | inhibition (Homo sapiens [35]): < 50% | inhibition [36]: < 50% | Ki [37]: 3 µM | inhibition [38]: < 50% | Activity [39]: >=20%
